Data reported in patent US12227501B2, “3-amino-2-[2-(acylamino)pyridin-4-yl]-1,5,6,7-tetrahydro-4h-pyrrolo[3,2-c]pyridin-4-one as CSNK1 inhibitors” (Bayer Aktiengesellschaft, priority 2019, dated 2025).
Several values for one entry are separate records, joined by “and”; a condition that tells them apart may be missing. Identical values can stand only once. Like-named read-outs stand apart in the source and are kept apart here.

Experiments:
Format in all cases: biochemical
[1] = target: human CSNK1D (Homo sapiens (Human), UniProt P48730); assay: CSNK1D Assay (ADP-Glo, 1 μM ATP); details: read-out: CSNK1D IC50 [mol/l] (median)
Procedure, shortened: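 Activity is read as ADP produced, by ADP-Glo luminescence after 1 h steps at 22 °C. The reaction uses 1 μM ATP, a biotinylated peptide and insect-cell-expressed GST–CSNK1D (about 0.5 ng/μL) in pH 7.5 HEPES buffer, with 15 min compound–enzyme preincubation.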

[2] = target: T1, human CSNK1A1 (Homo sapiens (Human), UniProt P48729); assay: CSNK1A1 High ATP Assay (ADP-Glo, 1 mM ATP); details: read-out: CSNK1A1 high ATP assay IC50 [mol/l] (median)
Procedure, shortened: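 Kinase activity taken as ADP generated, quantified by ADP-Glo luminescence after 1 h ATP depletion and 1 h detection at 22 °C. Enzyme is GST–full-length human CSNK1A1 (insect cell-expressed), pre-bound to compound for 15 min, with phosphopeptide substrate and 1 mM ATP.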

[3] = target: T1, human CSNK1A1; assay: CSNK1A1 Assay 2 (ADP-Glo, 1 μM ATP); details: substrate biotin-Ahx-KRRRAL-pS-VASLPGL, read-out: CSNK1A1 Assay 2 IC50 [mol/l] (median)
Procedure, shortened: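 Full-length human CSNK1A1 as an N-terminal GST fusion (baculovirus/insect cells) with biotinylated peptide substrate biotin-Ahx-KRRRAL-pS-VASLPGL and 1 μM ATP, in HEPES pH 7.5 buffer. Compounds were pre-incubated with enzyme (~0.0375 ng/μL) for 15 min at 22 °C. Generated ADP was read by ADP-Glo luminescence as the activity measure.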

[4] = target: wild-type Epidermal Growth Factor Receptor (EGFR) (Homo sapiens (Human), UniProt P00533); assay: WT-EGFR Kinase Assay (TR-FRET, 2 mM ATP)
[5] = read-out: EGFR Wildtyp- 2 mM ATP IC50 [mol/l] (median)
[6] = EGFR Wildtyp- 2 mM ATP IC50 [mol/l] (median)

T1 sequence (P48729 whole entry): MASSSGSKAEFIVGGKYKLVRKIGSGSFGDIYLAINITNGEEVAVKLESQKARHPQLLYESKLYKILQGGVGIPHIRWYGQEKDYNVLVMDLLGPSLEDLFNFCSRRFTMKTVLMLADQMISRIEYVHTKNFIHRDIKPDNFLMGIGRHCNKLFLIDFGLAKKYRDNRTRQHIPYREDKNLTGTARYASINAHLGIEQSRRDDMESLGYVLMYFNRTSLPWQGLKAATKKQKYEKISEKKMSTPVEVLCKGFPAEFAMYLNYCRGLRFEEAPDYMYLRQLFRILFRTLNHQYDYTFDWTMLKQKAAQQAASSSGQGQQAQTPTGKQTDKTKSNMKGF
Sequence of human CSNK1D (P48730 whole entry): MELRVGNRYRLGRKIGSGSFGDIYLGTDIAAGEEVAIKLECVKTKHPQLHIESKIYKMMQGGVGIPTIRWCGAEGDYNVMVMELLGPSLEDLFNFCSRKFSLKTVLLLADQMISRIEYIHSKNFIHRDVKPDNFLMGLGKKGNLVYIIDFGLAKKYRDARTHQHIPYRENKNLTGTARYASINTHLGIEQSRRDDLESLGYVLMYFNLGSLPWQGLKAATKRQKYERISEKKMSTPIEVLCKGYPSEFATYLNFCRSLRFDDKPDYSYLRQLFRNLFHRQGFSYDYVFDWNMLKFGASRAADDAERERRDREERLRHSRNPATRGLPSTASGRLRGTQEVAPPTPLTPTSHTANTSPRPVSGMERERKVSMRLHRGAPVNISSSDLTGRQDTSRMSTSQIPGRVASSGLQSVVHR
Sequence of wild-type Epidermal Growth Factor Receptor (EGFR) (P00533 669-1210): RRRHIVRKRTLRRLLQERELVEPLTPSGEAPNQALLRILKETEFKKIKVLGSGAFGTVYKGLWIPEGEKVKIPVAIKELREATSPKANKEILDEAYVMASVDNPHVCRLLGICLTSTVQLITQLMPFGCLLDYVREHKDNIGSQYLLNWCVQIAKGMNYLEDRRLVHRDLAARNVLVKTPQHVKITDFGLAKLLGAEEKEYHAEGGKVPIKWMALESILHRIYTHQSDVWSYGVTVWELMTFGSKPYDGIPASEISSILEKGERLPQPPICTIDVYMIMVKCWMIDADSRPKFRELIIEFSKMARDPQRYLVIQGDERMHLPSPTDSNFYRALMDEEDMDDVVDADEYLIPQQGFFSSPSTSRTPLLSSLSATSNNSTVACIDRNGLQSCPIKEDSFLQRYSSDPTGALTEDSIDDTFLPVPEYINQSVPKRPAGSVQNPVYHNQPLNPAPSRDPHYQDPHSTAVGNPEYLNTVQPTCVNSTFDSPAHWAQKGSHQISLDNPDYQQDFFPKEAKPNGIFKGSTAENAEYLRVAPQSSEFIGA

SMILES	IC50 [1]	IC50 [2]	IC50 [3]	IC50 [4, 5]	IC50 [4, 6]
CC(C(=O)Nc1cc(-c2[nH]c3c(c2Nc2ccccc2F)C(=O)N(C)CC3)ccn1)c1ccc(F)cc1 (single isomer, unassigned) [Example 42, N-{4-[3-(2-fluoroanilino)-5-methyl-4-oxo-4,5,6,7-tetrahydro-1H-pyrrolo[3,2-c]pyridin-2-yl]pyridin-2-yl}-2-(4-fluorophenyl)propanamide]	4.92 nM	57.2 nM	2.4 nM	> 20000 nM	
CN1CCc2[nH]c(-c3ccnc(NC(=O)C(CC(F)F)c4ccccc4)c3)c(Nc3ccccc3)c2C1=O (centres unmarked) [Example 33, N-[4-(3-anilino-5-methyl-4-oxo-4,5,6,7-tetrahydro-1H-pyrrolo[3,2-c]pyridin-2-yl)pyridin-2-yl]-4,4-difluoro-2-phenylbutanamide]	18.1 nM	72.2 nM	6.15 nM	> 20000 nM	
CC(C(=O)Nc1cc(-c2[nH]c3c(c2Nc2ccccc2)C(=O)NC(C)(C)C3)ccn1)c1ccc(F)cc1 (single isomer, unassigned) [Example 39, N-[4-(3-anilino-6,6-dimethyl-4-oxo-4,5,6,7-tetrahydro-1H-pyrrolo[3,2-c]pyridin-2-yl)pyridin-2-yl]-2-(4-fluorophenyl)propanamide]	214 nM	2.84 µM and 2.9 µM and > 20 µM (2×)	179 nM		> 20000 nM
O=C1NC2(CC2)Cc2[nH]c(-c3ccnc(NC(=O)C(CC(F)F)c4ccc(F)cc4)c3)c(Nc3ccccc3)c21 (single isomer, unassigned; enantiomer 1) [Example 148, N-[4-(3′-anilino-4′-oxo-1′,4′,5′,7′-tetrahydrospiro[cyclopropane-1,6′-pyrrolo[3,2-c]pyridin]-2′-yl)pyridin-2-yl]-4,4-difluoro-2-(4-fluorophenyl)butanamide (Enantiomer 1)]	8.31 nM	12.8 nM	8.82 nM		3400 nM
CC1Cc2[nH]c(-c3ccnc(NC(=O)Cc4ccc(F)cc4)c3)c(Nc3ccccc3)c2C(=O)N1C (racemic) [Example 88, N-{4-[3-anilino-5,6-dimethyl-4-oxo-4,5,6,7-tetrahydro-1H-pyrrolo[3,2-c]pyridin-2-yl]pyridin-2-yl}-2-(4-fluorophenyl)acetamide]	5.18 nM	65.1 nM	2.33 nM		727 nM
CN1CCc2[nH]c(-c3ccnc(NC(=O)Cc4cccc(S(C)(=O)=O)c4)c3)c(Nc3ccccc3)c2C1=O [Example 69, N-[4-(3-anilino-5-methyl-4-oxo-4,5,6,7-tetrahydro-1H-pyrrolo[3,2-c]pyridin-2-yl)pyridin-2-yl]-2-[3-(methanesulfonyl)phenyl]acetamide]	4.68 nM	81.7 nM	3.13 nM	510 nM	
CN1C(=O)c2c([nH]c(-c3ccnc(NC(=O)C(CC(F)F)c4ccc(F)cc4)c3)c2Nc2ccccc2)CC12CCC2 (single isomer, unassigned; enantiomer 2) [Example 162, (+)-N-[4-(3′-anilino-5′-methyl-4′-oxo-1′,4′,5′,7′-tetrahydrospiro[cyclobutane-1,6′-pyrrolo[3,2-c]pyridin]-2′-yl)pyridin-2-yl]-4,4-difluoro-2-(4-fluorophenyl)butanamide (Enantiomer 2)]	52.9 nM	61.4 nM	60.2 nM	> 20000 nM	
CC(C(=O)Nc1cc(-c2[nH]c3c(c2Nc2ccccc2)C(=O)N(C)C(C)C3)ccn1)c1ccc(F)cc1 (single isomer, unassigned; (+)) [Example 91, (+)-(2RS)—N-{4-[(6R*)-3-anilino-5,6-dimethyl-4-oxo-4,5,6,7-tetrahydro-1H-pyrrolo[3,2-c]pyridin-2-yl]pyridin-2-yl}-2-(4-fluorophenyl)propanamide]	8.83 nM	693 nM	4.73 nM		> 20000 nM
CC1(C)Cc2[nH]c(-c3ccnc(NC(=O)C(CC(F)F)c4ccc(F)cc4)c3)c(Nc3cccc(F)c3)c2C(=O)N1 (single isomer, unassigned; enantiomer 2) [Example 121, 4,4-difluoro-N-{4-[3-(3-fluoroanilino)-6,6-dimethyl-4-oxo-4,5,6,7-tetrahydro-1H-pyrrolo[3,2-c]pyridin-2-yl]pyridin-2-yl}-2-(4-fluorophenyl)butanamide (Enantiomer 2)]	63.5 nM	10200 nM	70.1 nM	> 20000 nM	
CC(C(=O)Nc1cc(-c2[nH]c3c(c2Nc2ccccc2Cl)C(=O)NCC3)ccn1)c1ccc(F)cc1 (centres unmarked) [Example 14, N-{4-[3-(2-chloroanilino)-4-oxo-4,5,6,7-tetrahydro-1H-pyrrolo[3,2-c]pyridin-2-yl]pyridin-2-yl}-2-(4-fluorophenyl)propanamide]	14 nM	73.9 nM	4.96 nM	> 20000 nM	
CC1(C)Cc2[nH]c(-c3ccnc(NC(=O)Cc4cccnc4)c3)c(Nc3ccccc3)c2C(=O)N1 [Example 52, N-[4-(3-anilino-6,6-dimethyl-4-oxo-4,5,6,7-tetrahydro-1H-pyrrolo[3,2-c]pyridin-2-yl)pyridin-2-yl]-2-(pyridin-3-yl)acetamide]	6.78 nM	25.4 nM	4.91 nM	526 nM	
CC(C(=O)Nc1cc(-c2[nH]c3c(c2Nc2ccccc2)C(=O)N(CC(C)(C)O)CC3)ccn1)c1ccc(F)cc1 (centres unmarked) [Example 24, N-{4-[3-anilino-5-(2-hydroxy-2-methylpropyl)-4-oxo-4,5,6,7-tetrahydro-1H-pyrrolo[3,2-c]pyridin-2-yl]pyridin-2-yl}-2-(4-fluorophenyl)propanamide]	64 nM	> 5710 nM and 4240 nM	39.2 nM	> 20000 nM	
CC1Cc2[nH]c(-c3ccnc(NC(=O)Cc4ccncc4)c3)c(Nc3ccccc3)c2C(=O)N1C (racemic) [Example 97, N-{4-[3-anilino-5,6-dimethyl-4-oxo-4,5,6,7-tetrahydro-1H-pyrrolo[3,2-c]pyridin-2-yl]pyridin-2-yl}-2-(pyridin-4-yl)acetamide]	5.73 nM	47 nM	4.4 nM		529 nM
CC(C(=O)Nc1cc(-c2[nH]c3c(c2Nc2ccccc2)C(=O)N(C)CC3)ccn1)c1ccncc1 (single isomer, unassigned) [Example 74, N-[4-(3-anilino-5-methyl-4-oxo-4,5,6,7-tetrahydro-1H-pyrrolo[3,2-c]pyridin-2-yl)pyridin-2-yl]-2-(pyridin-4-yl)propanamide]	55.1 nM	599 nM	33.9 nM		> 20000 nM
CN1CCc2[nH]c(-c3ccnc(NC(=O)Cc4ccc(F)cc4)c3)c(Nc3cc(F)ccc3F)c2C1=O [Example 150, N-{4-[3-(2,5-difluoroanilino)-5-methyl-4-oxo-4,5,6,7-tetrahydro-1H-pyrrolo[3,2-c]pyridin-2-yl]pyridin-2-yl}-2-(4-fluorophenyl)acetamide]	26.6 nM	1270 nM	17.9 nM	18300 nM	> 20000 nM
CCC(C(=O)Nc1cc(-c2[nH]c3c(c2Nc2ccccc2)C(=O)N(C)CC3)ccn1)c1ccc(F)cc1 (single isomer, unassigned; (-)) [Example 76, (−)-N-[4-(3-anilino-5-methyl-4-oxo-4,5,6,7-tetrahydro-1H-pyrrolo[3,2-c]pyridin-2-yl)pyridin-2-yl]-2-(4-fluorophenyl)butanamide]	17.5 nM	506 nM	14.4 nM		> 20000 nM
CC(C(=O)Nc1cc(-c2[nH]c3c(c2Nc2ccccc2F)C(=O)N(C)CC3)ccn1)c1ccc(F)cc1 (single isomer, unassigned; (-)) [Example 41, (−)-N-{4-[3-(2-fluoroanilino)-5-methyl-4-oxo-4,5,6,7-tetrahydro-1H-pyrrolo[3,2-c]pyridin-2-yl]pyridin-2-yl}-2-(4-fluorophenyl)propanamide]	31.2 nM	3530 nM	22.6 nM		> 20000 nM
CN1C(=O)c2c([nH]c(-c3ccnc(NC(=O)C(CC(F)F)c4ccc(F)cc4)c3)c2Nc2ccccc2F)CC1(C)C (single isomer, unassigned) [Example 46, 4,4-difluoro-N-{4-[3-(2-fluoroanilino)-5,6,6-trimethyl-4-oxo-4,5,6,7-tetrahydro-1H-pyrrolo[3,2-c]pyridin-2-yl]pyridin-2-yl}-2-(4-fluorophenyl)butanamide]	8.33 nM	119 nM	6.64 nM		> 20000 nM
CN1CCc2[nH]c(-c3ccnc(NC(=O)Cc4ccc(S(C)(=O)=O)cc4)c3)c(Nc3ccccc3)c2C1=O [Example 65, N-[4-(3-anilino-5-methyl-4-oxo-4,5,6,7-tetrahydro-1H-pyrrolo[3,2-c]pyridin-2-yl)pyridin-2-yl]-2-[4-(methanesulfonyl)phenyl]acetamide]	5.46 nM	17.5 nM	1.51 nM	490 nM	
